Assay results taken from patent US6933320B2, “Combination comprising combretastatin and anticancer agents” (priority 2001, dated 2005).
“And” between values parts separate entries of the source, which are not always exact repeats. Equal entries are not always repeated. Where two headings read alike, the source gives them in different places.

Legend:
MA13/C = type: in vivo
Procedure: This efficacy may be quantified, for example by the log10 cell kill, which is determined by the following formula: log10 cells killed=T-C(days)/3.32×Td in which T-C represents the time taken for the cells to grow, which is the mean time in days for the tumors of the treated group (T) to reach a predetermined value (1 g for example) and the tumors of the control group (C) to reach the same value, and Td represents the time in days needed for the volume of the tumors in the control group to double. (T. H. Corbett et al., Cancer, 40, 2660.2680 (1977); F. M. Schabel et al., Cancer Drug Development, Part B, Methods in Cancer Research, 17, 3-51, New York, Academic Press Inc. (1979)). A product is considered to be active if the log10 cell kill is greater than or equal to 0.7. A product is considered to be very active if the log10 cell kill is greater than 2.8.
(§1) The efficacy of the combinations on solid tumors were determined experimentally in the following manner:
(§2) The animals subjected to the experiment, generally mice, were subcutaneously grafted bilaterally with 30 to 60 mg of a tumor fragment on day 0. The animals bearing tumors were mixed before being subjected to the various treatments and controls. In the case of treatment of advanced tumors, tumors were allowed to develop to the desired size, and animals having insufficiently developed tumors were eliminated. The selected animals were distributed at random to undergo the treatments and controls. Animals not bearing tumors were also subjected to the same treatments as the tumor-bearing animals in order to be able to dissociate the toxic effect from the specific effect on the tumor. Chemotherapy generally began from 3 to 22 days after grafting, depending on the type of tumor, and the animals were observed every day. The different animal groups were weighed 3 or 4 times a week until the maximum weight loss was attained, and the groups were then weighed at least once a week until the end of the trial.
(§3) The tumors were measured 2 or 3 times a week until the tumor reached approximately 2 g, or until the animal died if this occurred before the tumor reached 2 g. The animals were autopsied when sacrificed.
(§4) The antitumor activity was determined in accordance with different parameters which were recorded such as dose (mg/kg), mode of administration, time of administration, cytotoxicity, toxicity and log cell kill.
In this and the following examples, RPR 258062A corresponds to the hydrochloride salt of compound IIa. The agents were administered intravenously unless otherwise specified.

C51 = assay: In vivo evaluation on subcutaneously grafted solid tumor C51
Procedure: A product is considered to be active if the log10 cell kill is greater than or equal to 0.7. A product is considered to be very active if the log10 cell kill is greater than 2.8.
as §1
as §2, with “Animals not bearing tumors were also subjected to the same treatments as the tumor-bearing animals in order to be able to dissociate the toxic effect from the specific effect on the tumor. Chemotherapy generally began from 3 to 22 days after grafting, depending on the type of tumor, and the animals were observed every day.” left out
as §3, §4
The agents were administered intravenously unless otherwise specified.

[1] = Solubility in water (statement); type: physicochemical; details: statement in words, no method given
[2] = MA13/C tumor, single agent at HNTD, i.v., schedule days 15, 25 (vinorelbine study)
[3] = sequential combination CPT-11 oral 400 mg/kg days 13-16 + RPR 258062A 36 mg/kg day 17
[4] = single agent at HNTD, RPR 258062A i.v. days 13-17 (2x/d), CPT-11 oral days 14-17
[5] = single agent at HNTD, i.v., schedule days 12, 16
[6] = MA13/C tumor, single agent at HNTD, i.v., schedule days 15, 22 (doxorubicin study)
[7] = MA13/C tumor, single agent at HNTD, i.v., docetaxel days 17, 24 (* evaluated on mice that developed tumor), RPR 258062A days 17, 24 (2x/d)
[8] = MA13/C tumor, single agent at HNTD, i.v., docetaxel days 17, 24, RPR 258062A days 17, 24 (2x/d)
[9] = MA13/C tumor, sequential combination RPR 258062A 1st 75 mg/kg day 14 + vinorelbine 2nd 32 mg/kg days 15, 25, i.v.
[10] = sequential combination RPR 258062A 58 mg/kg day 14 + CDDP 10 mg/kg days 15, 19, i.v.
[11] = simultaneous combination RPR 258062A 1st 116 mg/kg days 12, 16 + CDDP 10 mg/kg days 12, 16, i.v.

CCC1=C[C@@H]2CN(C1)Cc1c([nH]c3ccccc13)[C@@](C(=O)OC)(c1cc3c(cc1OC)N(C)[C@H]1[C@@](O)(C(=O)OC)[C@H](OC(C)=O)[C@]4(CC)C=CCN5CC[C@]31[C@@H]54)C2 [Vinorelbine, vinorelbine, reference compound]
LcK (log cell kill) (MA13/C; [2]): 4.6
RR CR (complete response) (MA13/C; [2]): 5/5
RR PR (partial response) (MA13/C; [2]): 5/5
T-C (tumor growth delay) (MA13/C; [2]): 45.5 days
TFS (tumor free survivors) (MA13/C; [2]): 0/5
HNTD Dose (highest nontoxic dose) (MA13/C; mouse, in vivo, iv): 19.8 mg/kg

CCc1c2c(nc3ccc(OC(=O)N4CCC(N5CCCCC5)CC4)cc13)-c1cc3c(c(=O)n1C2)COC(=O)[C@]3(O)CC [CPT-11, reference compound]
LcK (log cell kill) (C51; [3]): 1.9
RR CR (complete response) (C51; [3]): 3/5
RR PR (partial response) (C51; [3]): 5/5
T-C (tumor growth delay) (C51; [3]): 15.1 days
TFS (tumor free survivors) (C51; [3]): 0/5
LcK (log cell kill) (C51; [4]): 1.1
RR CR (complete response) (C51; [4]): 0/5
RR PR (partial response) (C51; [4]): 0/5
T-C (tumor growth delay) (C51; [4]): 8.7 days
TFS (tumor free survivors) (C51; [4]): 0/5

N.N.[Cl][Pt][Cl] [CDDP, cisplatinum, reference compound]
LcK (log cell kill) (C51; [5]): 1.9
RR CR (complete response) (C51; [5]): 0/6
RR PR (partial response) (C51; [5]): 5/6
T-C (tumor growth delay) (C51; [5]): 16.5 days
TFS (tumor free survivors) (C51; [5]): 0/6

COc1cccc2c1C(=O)c1c(O)c3c(c(O)c1C2=O)C[C@@](O)(C(=O)CO)C[C@@H]3O[C@H]1C[C@H](N)[C@H](O)[C@H](C)O1 [Doxorubicin, doxorubicin, reference compound]
LcK (log cell kill) (MA13/C; [6]): 4.5
RR CR (complete response) (MA13/C; [6]): 4/6
RR PR (partial response) (MA13/C; [6]): 4/6
T-C (tumor growth delay) (MA13/C; [6]): 53.5 days
TFS (tumor free survivors) (MA13/C; [6]): 0/6
HNTD Dose (highest nontoxic dose) (MA13/C; mouse, in vivo, iv): 17.4 mg/kg

CC(=O)O[C@@]12CO[C@@H]1C[C@H](O)[C@@]1(C)C(=O)[C@H](O)C3=C(C)[C@@H](OC(=O)[C@H](O)[C@@H](NC(=O)OC(C)(C)C)c4ccccc4)C[C@@](O)([C@@H](OC(=O)c4ccccc4)[C@H]21)C3(C)C [Docetaxel, docetaxel, reference compound]
LcK (log cell kill) (MA13/C; [7]): 3.2*
RR CR (complete response) (MA13/C; [8]): 4/6
RR PR (partial response) (MA13/C; [8]): 6/6
T-C (tumor growth delay) (MA13/C; [8]): 26.7 days
TFS (tumor free survivors) (MA13/C; [8]): 3/6
HNTD Dose (highest nontoxic dose) (MA13/C; mouse, in vivo, iv): 68 mg/kg

COc1ccc(/C=C\c2cc(OC)c(OC)c(OC)c2)cc1NC(=O)C(N)CO (centres unmarked) [IIa]
Solubility in water [1]: soluble in water

COc1ccc(/C=C\c2cc(OC)c(OC)c(OC)c2)cc1NC(=O)C(N)CO (centres unmarked) [RPR 258062A]
RR CR (complete response) (MA13/C; MA13/C tumor, sequential combination RPR 258062A 150 mg/kg days 16, 23 (2x/d) + docetaxel 109.6 mg/kg days 17, 24, i.v.): 6/6
RR CR (complete response) (MA13/C; [9]): 5/5
RR PR (partial response) (MA13/C; [9]): 5/5
T-C (tumor growth delay) (MA13/C; [9]): 84.7 days
HNTD Dose (highest nontoxic dose) (MA13/C; MA13/C tumor, sequential combination RPR 258062A 1st (day 14) + vinorelbine 2nd (days 15, 25), i.v., dose of each constituent): 75 mg/kg
HNTD Dose (highest nontoxic dose) (MA13/C; MA13/C tumor, sequential combination RPR 258062A (days 15, 21) + doxorubicin (days 16, 22), i.v., dose of each constituent): 139.6 mg/kg
HNTD Dose (highest nontoxic dose) (MA13/C; MA13/C tumor, sequential combination RPR 258062A (days 16, 23, 2x/d) + docetaxel (days 17, 24), i.v., dose of each constituent): 150 mg/kg
LcK (log cell kill) (MA13/C; [6]): 1.3
RR CR (complete response) (MA13/C; [6]): 0/6
RR PR (partial response) (MA13/C; [6]): 0/6
T-C (tumor growth delay) (MA13/C; [6]): 30.2 days
TFS (tumor free survivors) (MA13/C; [6]): 0/6
LcK (log cell kill) (MA13/C; [2]): 0.5
RR CR (complete response) (MA13/C; [2]): 0/5
RR PR (partial response) (MA13/C; [2]): 0/5
T-C (tumor growth delay) (MA13/C; [2]): 5 days
TFS (tumor free survivors) (MA13/C; [2]): 0/5
LcK (log cell kill) (MA13/C; [7]): 1.3
RR CR (complete response) (MA13/C; [8]): 1/6
RR PR (partial response) (MA13/C; [8]): 1/6
T-C (tumor growth delay) (MA13/C; [8]): 10.8 days
TFS (tumor free survivors) (MA13/C; [8]): 0/6
HNTD Dose (highest nontoxic dose) (MA13/C; MA13/C tumor, single agent, i.v., schedule days 15, 22 (doxorubicin study)): 186.0 mg/kg
HNTD Dose (highest nontoxic dose) (MA13/C; MA13/C tumor, single agent, i.v., schedule days 15, 25 (vinorelbine study)): 150 mg/kg
HNTD Dose (highest nontoxic dose) (MA13/C; MA13/C tumor, single agent, i.v., docetaxel days 17, 24, RPR 258062A days 17, 24 (2x/d)): 242 mg/kg
RR CR (complete response) (MA13/C; mouse, in vivo): 7/7
RR PR (partial response) (MA13/C; mouse, in vivo): 6/6 and 7/7
T-C (tumor growth delay) (MA13/C; mouse, in vivo): 74.8 days and 80.6 days
TFS (tumor free survivors) (MA13/C; mouse, in vivo): 2/5 and 4/6 and 2/7
HNTD Dose (highest nontoxic dose) (C51; sequential combination CPT-11 oral (days 13-16) + RPR 258062A i.v. (day 17), dose of each constituent): 36 mg/kg
LcK (log cell kill) (C51; [10]): 5.9
RR CR (complete response) (C51; [10]): 5/5
RR PR (partial response) (C51; [10]): 5/5
T-C (tumor growth delay) (C51; [10]): 51 days
TFS (tumor free survivors) (C51; [10]): 0/5
HNTD Dose (highest nontoxic dose) (C51; sequential combination RPR 258062A (day 14) + CDDP (days 15, 19), i.v., dose of each constituent): 58 mg/kg
RR CR (complete response) (C51; [11]): 6/6
RR PR (partial response) (C51; [11]): 6/6
TFS (tumor free survivors) (C51; [11]): 6/6
HNTD Dose (highest nontoxic dose) (C51; simultaneous combination RPR 258062A 1st (days 12, 16) + CDDP (days 12, 16), i.v., dose of each constituent): 116 mg/kg
LcK (log cell kill) (C51; [4]): 1.3
RR CR (complete response) (C51; [4]): 0/5
RR PR (partial response) (C51; [4]): 5/5
T-C (tumor growth delay) (C51; [4]): 10.3 days
TFS (tumor free survivors) (C51; [4]): 0/5
LcK (log cell kill) (C51; [5]): 1.2
RR CR (complete response) (C51; [5]): 0/6
RR PR (partial response) (C51; [5]): 6/6
T-C (tumor growth delay) (C51; [5]): 10 days
TFS (tumor free survivors) (C51; [5]): 0/6
HNTD Dose (highest nontoxic dose) (C51; single agent, RPR 258062A i.v. days 13-17 (2x/d), CPT-11 oral days 14-17): 116.5 mg/kg
HNTD Dose (highest nontoxic dose) (C51; single agent, i.v., schedule days 12, 16): 116 mg/kg
